Experimental data taken from EPA's ToxValDB 9.5 (doi:10.2903/j.efsa.2010.1872).
Converted amounts (≈) assume the structure as drawn.

Experiments:
[1] = test system: Anas platyrhynchos; details: oral, mortality
[2] = test system: Apis mellifera; details: acute; oral; unspecified; mortality
[3] = test system: Bibionidae; details: chronic/long-term; duration: 28 days; development
[4] = test system: Colinus virginianus
[5] = test system: Daphnia magna; details: chronic/long-term; duration: 21 days
[6] = test system: Folsomia candida; details: chronic/long-term; duration: 28 days; mortality
[7] = test system: Pimephales promelas
[8] = test system: Rattus norvegicus
[9] = test system: Tagia sp.; details: acute, duration: 14 days
[10] = test system: Typhlodromus pyri; details: chronic/long-term; mortality
[11] = test system: Typhlodromus pyri; assay: LR50; higher = less toxic; details: not reported; mortality
[12] = reproduction developmental, reproduction

Molecule `CC1(C)[C@H](C(=O)O[C@H](C#N)c2cccc(Oc3ccccc3)c2)[C@@H]1/C=C\C(=O)OC(C(F)(F)F)C(F)(F)F` [Acrinathrin] has an LD50 ([1]; acute, unspecified) greater than 2000 mg/kg-day, an NOEC ([1]; short-term, feed) of 173 mg/kg-day and an LD50 [2] of 0.077 µg/piece. The NOEC [3] was 3.1e-05 mg/L, the LD50 ([4]; acute, oral, mortality) was greater than 2250 mg/kg-day and the NOEC [4, 12] was 19.9 mg/kg-day. For the same molecule, the NOEC ([4]; short-term, oral, diet, mortality) was 325 mg/kg-day, the NOEC [5] was 3.2e-06 mg/L and the NOEC [6] was less than 1 mg/kg. The LC50 ([7]; acute, duration: 96 hours, mortality) was 1.7 ng/mL (≈ 3.14 nM), the NOEC ([7]; chronic/long-term, duration: 21 days) was 1.1e-05 mg/L and the NOAEL ([8]; acute, neurology) was 1 mg/kg-day. It also gave an LD50 ([8]; acute, oral, mortality) greater than 5000 mg/kg-day, an NOAEL [8, 12] of 9.4 mg/kg-day and an NOEL [8, 12] of 2.5 mg/kg-day. The NOEC [9] was 1.6 mg/kg, the LC50 ([9]; mortality) was greater than 1000 mg/kg and the NOEC [10] was 0.00068 g/ha. It also gave an LR50 [11] of 0.006 g/ha.
